Assay results published in patent US11110088B2, “Imidazopyrazine inhibitors of Bruton's tyrosine kinase” (Acerta Pharma B.V., priority 2015, dated 2021).

Key:
[1] = target: ErbB2 (Homo sapiens (Human), UniProt P04626); test: ErbB2 Z-LYTE assay (Life Technologies); type: biochemical; settings: Z-LYTE assay performed at Life Technologies
[2] = target: ITK (Homo sapiens (Human), UniProt Q08881); test: ITK enzyme activity, IMAP assay; type: biochemical; settings: 60 min pre-incubation; 5 μM ATP
Method: ITK enzyme activity is measured using the IMAP (immobilized metal ion affinity-based fluorescence polarization) assay as outlined below.
ITK enzyme (Millipore #14-660M) is diluted to 0.2 U/mL in KR buffer (10 mM Tris-HCl, 10 mM MgCl2, 0.01% Tween-20, 0.1% NaN3, 1 mM DTT, 2 mM MnCl2, pH 7.5)
(§1) The dilutions in DMSO are then diluted 50-fold in KR-buffer.
(§2) Test compounds and ITK enzyme are pre-incubated 60 minutes at room temperature, before adding 5 μL/well of 200 nM Fluorescin labeled substrate peptide (Blk/Lyntide substrate #R8124, Molecular Devices) in KR-buffer. Final peptide substrate concentration in assay is 50 nM. […] IC50 values are determined by curve fitting of the experimental results using Activity Base.

[3] = target: Txk (Homo sapiens (Human), UniProt P42681); test: TXK enzyme activity, IMAP assay; type: biochemical; settings: 60 min pre-incubation; 1 μM ATP
Method: TXK enzyme activity is measured using the IMAP (immobilized metal ion affinity-based fluorescence polarization) assay as outlined below.
TXK enzyme (Millipore #14-761), is diluted to 2.5 U/mL in KR buffer (10 mM Tris-HCl, 10 mM MgCl2, 0.01% Tween-20, 0.1% NaN3, 1 mM DTT, 2 mM MnCl2, pH 7.5).
(§3) Serial dilutions log 10 from 2 mM to 63.2 nM of test compounds are made in 100% DMSO. The dilutions in DMSO are then diluted 50-fold in KR-buffer. Final compound concentration range in the assay ranged from 10 μM to 0.316 nM.
The assay is performed as follows: 5 μL/well of test compound in KR buffer (final DMSO concentration in the assay is 1%) is mixed with 5 μL/well of 2.5 U/mL TXK enzyme (final concentration in the assay is 0.625 U/mL (4.4 nM)). Test compounds and TXK enzyme are pre-incubated 60 minutes at room temperature, before adding 5 μL/well of 200 nM Fluorescin labeled substrate peptide (Blk/Lyntide substrate #R7188, Molecular Devices) in KR-buffer. Final peptide substrate concentration in assay is 50 nM. […] Following incubation for 2 hours at room temperature the enzyme reaction is stopped by adding 40 μL/well IMAP Progressive Binding Solution (according to suppliers (Molecular Devices) protocol using 60% 1× buffer A and 40% 1× buffer B with 800× diluted beads (Progressive Binding System, Molecular Devices). After 60 min incubation at room temperature in the dark the FP signal is read. Fluorescence at 535 nm is measured using parallel and perpendicular filters to determine differences in rotation due to binding of the phosphorylated substrate peptide to the beads. Values are calculated as percentage of the difference in readout (ΔmPi) of the controls with and without ATP. IC50 values are determined by curve fitting of the experimental results using Activity Base.

[4] = target: Bmx (Homo sapiens (Human), UniProt P51813); test: BMX enzyme activity, IMAP assay; type: biochemical; settings: 60 min pre-incubation; 5 μM ATP
Bmx, sequence (P51813 whole entry): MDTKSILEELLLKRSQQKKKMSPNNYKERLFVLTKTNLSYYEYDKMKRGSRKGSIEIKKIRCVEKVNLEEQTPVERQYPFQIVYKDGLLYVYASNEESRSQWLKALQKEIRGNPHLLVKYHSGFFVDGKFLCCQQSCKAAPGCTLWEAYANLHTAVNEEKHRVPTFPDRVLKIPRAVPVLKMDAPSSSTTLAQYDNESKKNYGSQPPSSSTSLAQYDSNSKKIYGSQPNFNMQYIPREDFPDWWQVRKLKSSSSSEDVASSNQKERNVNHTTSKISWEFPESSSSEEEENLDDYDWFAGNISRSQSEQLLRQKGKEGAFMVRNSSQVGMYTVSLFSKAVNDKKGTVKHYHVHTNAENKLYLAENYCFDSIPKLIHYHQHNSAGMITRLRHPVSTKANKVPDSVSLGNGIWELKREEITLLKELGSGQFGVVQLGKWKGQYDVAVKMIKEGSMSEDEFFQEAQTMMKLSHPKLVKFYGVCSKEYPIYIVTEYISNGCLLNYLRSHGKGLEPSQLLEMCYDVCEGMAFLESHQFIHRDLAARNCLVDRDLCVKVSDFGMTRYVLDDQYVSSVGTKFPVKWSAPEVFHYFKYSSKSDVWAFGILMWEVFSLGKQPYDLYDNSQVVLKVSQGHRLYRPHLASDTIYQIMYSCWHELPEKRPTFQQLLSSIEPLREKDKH
Method: BMX enzyme activity is measured using the IMAP (immobilized metal ion affinity-based fluorescence polarization) assay as outlined below.
as §1
as §2, with “BMX” for “ITK”, “#R7188,” for “#R8124,”

[5] = target: EGFR WT (Homo sapiens (Human), UniProt P00533); test: EGFR enzyme activity, IMAP assay; type: biochemical; settings: 60 min pre-incubation; 2 μM ATP
EGFR WT, sequence (P00533 25-1210): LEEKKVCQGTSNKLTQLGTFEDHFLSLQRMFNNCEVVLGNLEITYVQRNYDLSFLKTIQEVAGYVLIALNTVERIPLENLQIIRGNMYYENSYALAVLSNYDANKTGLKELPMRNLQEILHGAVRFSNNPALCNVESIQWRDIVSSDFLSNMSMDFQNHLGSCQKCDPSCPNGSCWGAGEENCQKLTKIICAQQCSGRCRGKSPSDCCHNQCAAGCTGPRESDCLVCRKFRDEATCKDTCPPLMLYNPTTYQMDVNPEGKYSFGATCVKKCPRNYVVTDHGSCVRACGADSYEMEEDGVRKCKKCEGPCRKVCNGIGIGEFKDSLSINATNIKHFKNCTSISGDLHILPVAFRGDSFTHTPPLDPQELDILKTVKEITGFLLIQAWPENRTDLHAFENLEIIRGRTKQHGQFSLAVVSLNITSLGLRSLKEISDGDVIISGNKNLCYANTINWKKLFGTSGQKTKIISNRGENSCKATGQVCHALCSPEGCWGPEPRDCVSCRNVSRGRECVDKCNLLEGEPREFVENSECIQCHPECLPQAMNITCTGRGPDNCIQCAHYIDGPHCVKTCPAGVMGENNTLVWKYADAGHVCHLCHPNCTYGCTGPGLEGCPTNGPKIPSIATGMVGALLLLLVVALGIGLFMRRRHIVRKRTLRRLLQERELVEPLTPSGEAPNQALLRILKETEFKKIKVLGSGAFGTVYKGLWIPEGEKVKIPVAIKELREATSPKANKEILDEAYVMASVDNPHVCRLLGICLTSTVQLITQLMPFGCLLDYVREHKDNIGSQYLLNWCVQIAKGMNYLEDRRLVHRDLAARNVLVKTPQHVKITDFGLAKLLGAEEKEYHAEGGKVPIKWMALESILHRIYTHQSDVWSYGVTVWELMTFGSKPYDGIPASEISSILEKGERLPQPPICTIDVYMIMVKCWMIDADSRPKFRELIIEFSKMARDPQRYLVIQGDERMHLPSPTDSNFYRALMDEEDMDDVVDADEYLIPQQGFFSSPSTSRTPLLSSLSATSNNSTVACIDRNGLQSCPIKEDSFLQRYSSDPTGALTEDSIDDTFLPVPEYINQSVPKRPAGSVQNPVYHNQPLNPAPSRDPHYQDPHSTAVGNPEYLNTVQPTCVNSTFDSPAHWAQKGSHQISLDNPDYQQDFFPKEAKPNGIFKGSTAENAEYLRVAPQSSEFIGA
Method: EGFR enzyme activity is measured using the IMAP (immobilized metal ion affinity-based fluorescence polarization) assay as outlined below.
EGFR enzyme (Invitrogen catalog #PR7295B), is diluted to 2.5 μg/mL in KR buffer (10 mM Tris-HCl, 10 mM MgCl2, 0.01% Tween-20, 0.1% NaN3, 1 mM DTT, 2 mM MnCl2, pH 7.5).
Final peptide substrate concentration in assay is 50 nM. […] Following incubation for 60 min at room temperature in the dark the enzyme reaction is stopped by adding 40 μL/well IMAP Progressive Binding Solution (according to suppliers (Molecular Devices) protocol using 20% 1× buffer A and 80% 1× buffer B with 600× diluted beads). After 60 min incubation at room temperature in the dark the FP signal is read. […] Values are calculated as percentage of the difference in readout (ΔmPi) of the controls with and without ATP. IC50 values are determined by curve fitting of the experimental results using GraphPad Prism6.

[6] = target: ErbB4 (Homo sapiens (Human), UniProt Q15303); test: ErbB4 Z-LYTE assay (Life Technologies); type: biochemical; settings: Z-LYTE assay performed at Life Technologies
ErbB4, sequence (Q15303 26-1308): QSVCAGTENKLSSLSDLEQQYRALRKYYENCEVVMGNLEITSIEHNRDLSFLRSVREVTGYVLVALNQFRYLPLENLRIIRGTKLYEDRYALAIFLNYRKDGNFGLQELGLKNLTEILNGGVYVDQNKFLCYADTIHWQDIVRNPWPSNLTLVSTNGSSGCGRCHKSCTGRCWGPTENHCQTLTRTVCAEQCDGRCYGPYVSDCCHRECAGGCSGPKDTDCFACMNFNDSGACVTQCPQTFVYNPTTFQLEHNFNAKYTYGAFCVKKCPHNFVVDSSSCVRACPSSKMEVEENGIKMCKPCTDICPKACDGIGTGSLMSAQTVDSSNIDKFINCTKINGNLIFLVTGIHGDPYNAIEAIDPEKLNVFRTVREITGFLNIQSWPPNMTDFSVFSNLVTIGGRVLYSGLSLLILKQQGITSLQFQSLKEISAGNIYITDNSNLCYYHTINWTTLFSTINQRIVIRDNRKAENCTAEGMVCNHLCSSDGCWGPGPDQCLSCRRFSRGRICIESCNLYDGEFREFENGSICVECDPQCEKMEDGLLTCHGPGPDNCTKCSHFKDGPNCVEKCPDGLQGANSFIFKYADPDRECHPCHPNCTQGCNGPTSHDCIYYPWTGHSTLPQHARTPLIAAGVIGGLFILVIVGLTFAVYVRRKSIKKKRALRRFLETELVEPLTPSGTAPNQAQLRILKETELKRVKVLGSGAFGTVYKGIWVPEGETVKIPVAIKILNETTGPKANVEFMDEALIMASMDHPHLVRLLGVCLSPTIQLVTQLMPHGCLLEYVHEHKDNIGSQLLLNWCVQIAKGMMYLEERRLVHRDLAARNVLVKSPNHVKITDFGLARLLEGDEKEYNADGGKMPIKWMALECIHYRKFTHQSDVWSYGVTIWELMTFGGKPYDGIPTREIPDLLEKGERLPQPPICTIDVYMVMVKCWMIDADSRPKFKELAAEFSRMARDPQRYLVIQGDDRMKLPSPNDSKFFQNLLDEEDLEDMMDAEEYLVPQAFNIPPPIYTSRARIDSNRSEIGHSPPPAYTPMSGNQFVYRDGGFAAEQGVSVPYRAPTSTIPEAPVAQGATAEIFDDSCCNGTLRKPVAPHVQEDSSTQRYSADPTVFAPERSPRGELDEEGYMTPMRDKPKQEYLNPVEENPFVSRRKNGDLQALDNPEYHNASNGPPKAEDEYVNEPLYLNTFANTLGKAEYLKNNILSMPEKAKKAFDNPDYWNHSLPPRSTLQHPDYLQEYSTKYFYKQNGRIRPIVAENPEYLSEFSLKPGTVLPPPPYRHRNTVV

[7] = target: Blk (Homo sapiens (Human), UniProt P51451); test: Blk Z-LYTE assay (Life Technologies); type: biochemical; settings: Z-LYTE assay performed at Life Technologies
[8] = test system: CD69 in CD19+ B cells of anti-IgM stimulated PBMCs; test: Human peripheral blood mononuclear cell (PBMC) CD69 assay; type: cell-based; settings: Homo sapiens, PBMC, 2 h compound, then anti-IgM 18 hours
Method: Example 44—Human Peripheral Blood Mononuclear Cell (PBMC) CD69 Assay
Whole blood was collected in heparin-coated Vacutainer tubes (BD Biosciences, San Jose, Calif.) and used for isolation of PBMCs using Ficoll-Hypaque (Pharmacia, Uppsala, Sweden). Isolated PBMCs were cryopreserved in 90% FCS/10% DMSO until later use.
Cells from cryogenic storage were thawed in a 37° C. water bath, diluted with RPMI/1% FCS, washed 2 times, and then plated at 1×10^5 cells per well in RPMI/10% FCS.
Serial dilutions log 10 from 10 mM to 316 nM of test compounds are made in 100% DMSO, followed by a 100-fold dilution into RPMI/1% FCS. For each well, 10 μL was then transferred to the deep well plate containing 90 μL of PBMC cells. Final compound concentration range in the assay ranged from 10 μM to 0.316 nM, with a final DMSO concentration of 0.1%. PBMCs are then incubated for 2 h at 37° C. in presence or absence of test compounds, prior to stimulation with goat F(ab′)2 anti-IgM (Southern Biotech, #2022-14, final concentration in assay 5 μg/mL) for 18 hours.
Following stimulation with anti-IgM, PBMCs were incubated on ice for 30 min with anti-CD69-FITC, anti-CD19-BV421 (BD Biosciences #555530 and #562440, respectively) and 7AAD (Life Technologies #A1310). Flow cytometry was performed and fluorescence values were obtained from the CD69-FITC channel in CD19+ gated life B cells. ECso values are determined by curve fitting of the experimental results using GraphPad Prism.

[9] = target: BTK (Homo sapiens (Human), UniProt Q06187); test: BTK enzyme activity, IMAP assay; type: biochemical; settings: 60 min pre-incubation; 5 μM ATP
BTK, sequence (Q06187 whole entry): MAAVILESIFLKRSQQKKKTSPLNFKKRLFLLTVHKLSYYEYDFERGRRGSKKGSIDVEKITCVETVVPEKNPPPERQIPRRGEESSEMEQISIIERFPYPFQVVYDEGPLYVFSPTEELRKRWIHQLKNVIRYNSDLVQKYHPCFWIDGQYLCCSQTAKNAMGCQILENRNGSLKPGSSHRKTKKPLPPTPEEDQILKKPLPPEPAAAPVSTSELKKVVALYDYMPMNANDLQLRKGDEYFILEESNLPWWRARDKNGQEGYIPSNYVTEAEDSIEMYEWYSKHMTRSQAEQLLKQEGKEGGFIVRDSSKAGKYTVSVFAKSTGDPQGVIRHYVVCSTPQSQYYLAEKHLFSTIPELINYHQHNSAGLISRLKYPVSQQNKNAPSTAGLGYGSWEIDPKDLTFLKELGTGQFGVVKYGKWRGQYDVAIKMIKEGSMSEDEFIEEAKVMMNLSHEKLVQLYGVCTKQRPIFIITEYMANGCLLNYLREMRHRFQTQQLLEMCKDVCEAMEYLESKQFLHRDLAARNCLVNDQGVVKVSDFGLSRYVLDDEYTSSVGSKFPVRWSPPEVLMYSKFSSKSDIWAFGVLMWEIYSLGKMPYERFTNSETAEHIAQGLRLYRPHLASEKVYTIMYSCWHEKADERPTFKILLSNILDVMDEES
Method: BTK enzyme activity is measured using the IMAP (immobilized metal ion affinity-based fluorescence polarization) assay as outlined below.
BTK enzyme (His-BTK (Millipore catalog #14-552)), is diluted to 0.4 U/mL in KR buffer (10 mM Tris-HCl, 10 mM MgCl2, 0.01% Tween-20, 0.05% NaN3, 1 mM DTT, 2 mM MnCl2, pH 7.2).
as §3
The assay is performed as follows: 5 μL/well of test compound in KR buffer (final DMSO concentration in the assay is 1%) is mixed with 5 µl/well of 0.4 U/mL BTK enzyme (final concentration in the assay is 0.1 U/mL). Test compounds and BTK enzyme are pre-incubated 60 minutes at room temperature, before adding 5 μL/well of 200 nM Fluorescin labeled substrate peptide (Blk/Lyntide substrate, e.g. #R7188/#R7233, Molecular Devices) in KR-buffer. Final peptide substrate concentration in assay is 50 nM. […] Following incubation for 2 hours at room temperature the enzyme reaction is stopped by adding 40 μL/well IMAP Progressive Binding Solution (according to suppliers (Molecular Devices) protocol using 75% 1× buffer A and 25% 1× buffer B with 1:600 Progressive Binding Solution). After 60 min incubation at room temperature in the dark the FP signal is read. Fluorescence at 535 nm is measured using parallel and perpendicular filters to determine differences in rotation due to binding of the phosphorylated substrate peptide to the beads. Values are calculated as percentage of the difference in readout (ΔmPi) of the controls with and without ATP. IC50 values are determined by curve fitting of the experimental results using Activity Base.

[10] = target: Jak3 (Homo sapiens (Human), UniProt P52333); test: Jak3 Z-LYTE assay (Life Technologies); type: biochemical; settings: Z-LYTE assay performed at Life Technologies
Jak3, sequence (P52333 whole entry): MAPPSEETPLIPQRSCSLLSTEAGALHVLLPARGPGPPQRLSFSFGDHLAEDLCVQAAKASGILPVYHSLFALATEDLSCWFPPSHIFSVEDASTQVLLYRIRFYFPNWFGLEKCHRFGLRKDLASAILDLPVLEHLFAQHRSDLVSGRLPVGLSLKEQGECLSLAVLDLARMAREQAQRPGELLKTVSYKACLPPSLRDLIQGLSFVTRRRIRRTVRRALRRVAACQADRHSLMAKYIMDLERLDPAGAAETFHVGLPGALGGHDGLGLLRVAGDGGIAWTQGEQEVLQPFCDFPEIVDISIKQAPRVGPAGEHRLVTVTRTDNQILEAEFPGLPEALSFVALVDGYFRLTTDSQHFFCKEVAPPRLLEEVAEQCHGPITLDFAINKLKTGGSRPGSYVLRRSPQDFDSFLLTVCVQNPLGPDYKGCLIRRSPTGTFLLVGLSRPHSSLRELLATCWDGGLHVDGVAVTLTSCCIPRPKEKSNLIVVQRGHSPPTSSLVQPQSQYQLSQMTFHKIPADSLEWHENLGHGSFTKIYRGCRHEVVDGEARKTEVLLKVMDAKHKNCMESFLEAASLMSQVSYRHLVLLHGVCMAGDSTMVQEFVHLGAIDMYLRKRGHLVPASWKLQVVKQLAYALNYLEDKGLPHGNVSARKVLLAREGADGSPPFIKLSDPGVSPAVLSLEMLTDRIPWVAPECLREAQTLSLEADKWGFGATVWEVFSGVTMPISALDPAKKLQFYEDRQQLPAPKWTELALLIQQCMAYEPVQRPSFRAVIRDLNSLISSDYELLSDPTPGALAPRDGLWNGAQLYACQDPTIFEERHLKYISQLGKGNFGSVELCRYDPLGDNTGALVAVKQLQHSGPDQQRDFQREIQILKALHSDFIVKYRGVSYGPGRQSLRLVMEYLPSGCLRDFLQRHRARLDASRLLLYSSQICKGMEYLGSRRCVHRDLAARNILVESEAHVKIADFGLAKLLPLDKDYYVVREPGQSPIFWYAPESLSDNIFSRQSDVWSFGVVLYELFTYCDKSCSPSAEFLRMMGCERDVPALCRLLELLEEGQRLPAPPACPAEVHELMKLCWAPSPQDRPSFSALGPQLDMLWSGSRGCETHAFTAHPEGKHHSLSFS

IC50 [1]: > 1000 nM
IC50 [2]: > 1000 nM
IC50 [3]: 16 nM
IC50 [4]: 14 nM
IC50 [5]: > 1000 nM
IC50 [6]: 99 nM
IC50 [7]: 489 nM
IC50 [9]: 2.5 nM
IC50 [10]: > 1000 nM
SMILES: CC#CC(=O)N1CCC[C@H]1c1nc(-c2ccc(C(=O)Nc3cc(C(F)(F)F)ccn3)c(OC)c2)c2c(N)nccn12
EC50 [8]: 3.7 nM
